Assay results from patent US9834542B2, “LXR modulators” (BRISTOL-MYERS SQUIBB COMPANY, priority 2013, dated 2017).

Molecular target: T1, LXRβ (Homo sapiens, UniProt P55055)
T1 construct: Co-transfection expression plasmids, comprising full-length LXRα (pCMX-h LXRα[…] or LXRβ (pCMX-hLXRβ)); expressed in transfected cells; host or cells: CV-1 African Green Monkey Kidney Cells
T1 sequence (P55055 1-460): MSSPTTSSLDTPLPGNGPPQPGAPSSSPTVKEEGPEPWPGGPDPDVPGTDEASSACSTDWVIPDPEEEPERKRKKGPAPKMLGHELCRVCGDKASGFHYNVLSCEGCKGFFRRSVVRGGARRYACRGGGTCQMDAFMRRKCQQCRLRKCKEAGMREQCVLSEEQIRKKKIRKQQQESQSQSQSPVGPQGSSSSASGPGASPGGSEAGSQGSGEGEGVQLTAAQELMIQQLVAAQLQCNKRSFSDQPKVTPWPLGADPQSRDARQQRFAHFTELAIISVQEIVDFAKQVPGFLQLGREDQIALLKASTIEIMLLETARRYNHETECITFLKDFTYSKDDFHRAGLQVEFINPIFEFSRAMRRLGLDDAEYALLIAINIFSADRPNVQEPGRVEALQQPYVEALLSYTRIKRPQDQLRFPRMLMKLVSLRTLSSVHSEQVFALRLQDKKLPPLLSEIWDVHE
T1 sequence (P19793 1-462 partner): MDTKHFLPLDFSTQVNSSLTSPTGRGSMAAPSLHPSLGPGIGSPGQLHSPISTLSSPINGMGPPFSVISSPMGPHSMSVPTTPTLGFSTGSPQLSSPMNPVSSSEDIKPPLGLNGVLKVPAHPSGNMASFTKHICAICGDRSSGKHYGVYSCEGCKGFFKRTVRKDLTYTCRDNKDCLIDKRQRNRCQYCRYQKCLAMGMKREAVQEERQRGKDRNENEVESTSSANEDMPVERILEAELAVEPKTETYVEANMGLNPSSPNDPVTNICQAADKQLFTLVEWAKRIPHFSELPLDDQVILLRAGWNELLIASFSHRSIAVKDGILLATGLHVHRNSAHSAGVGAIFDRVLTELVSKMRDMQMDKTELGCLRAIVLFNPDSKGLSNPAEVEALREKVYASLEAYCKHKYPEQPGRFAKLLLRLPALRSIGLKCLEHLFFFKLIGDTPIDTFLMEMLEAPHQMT
Assay: Co-transfection assay (LXRE luciferase reporter), LXRβ
Type: cell-based
Details: for EC50: CV-1 cells transfected with pCMX-hLXRβ and LXREx1-Tk-Luciferase, 20 hours incubation; for Emax: LXRβ co-transfection, relative to high control 1-(2,4-difluorobenzyl)-2-oxo-6-(4-phenoxyphenyl)-4-(trifluoromethyl)-1,2-dihydropyridine-3-carbonitrile, read-out: % Efficacy
In short: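 Luciferase output from an LXRE-Tk reporter measured after 20 h, 37 °C compound exposure of transiently transfected CV-1 cells expressing human LXRβ with endogenous RXR. EC50 fitted from 11-point half-log dose responses (mean of ≥2 runs); % efficacy versus maximal response of the reference agonist.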

Structure (SMILES) | EC50 | Emax
CS(=O)(=O)c1cccc(-c2ccc(-n3cc(C(F)(F)F)nc3Cl)c(-n3nncc3-c3ccc(Cl)cc3Cl)c2)c1 [Example 143, 1-{4-[2-chloro-4-(trifluoromethyl)-1H-imidazol-1-yl]-3′-(methylsulfonyl)biphenyl-3-yl}-5-(2,4-dichlorophenyl)-1H-1,2,3-triazole] | 942 nM | 98%
Cc1nc(-c2cc(-c3cc(F)c(CO)c(S(C)(=O)=O)c3)ccc2-n2cc(C(F)(F)F)nc2C)c(-c2ccc3c(c2)C(O)C(F)(F)O3)o1 (stereo not shown) [Example 487, 2,2-difluoro-5-(4-(3′-fluoro-4′-(hydroxymethyl)-4-(2-methyl-4-(trifluoromethyl)-1H-imidazol-1-yl)-5′-(methylsulfonyl)biphenyl-3-yl)-2-methyloxazol-5-yl)-2,3-dihydrobenzofuran-3-ol] | 815 nM | 59%
CS(=O)(=O)c1cccc(-c2ccc(-n3cc(C(F)(F)F)nc3Cl)c(-n3nncc3-c3ccc(OC(F)(F)F)cc3)c2)c1 [Example 146, 1-{4-[2-chloro-4-(trifluoromethyl)-1H-imidazol-1-yl]-3′-(methylsulfonyl)biphenyl-3-yl}-5-{4-[(trifluoromethyl)oxy]phenyl}-1H-1,2,3-triazole] | 251 nM | 112%
CS(=O)(=O)c1cccc(-c2cc(F)c(-n3cnc(C(F)(F)F)c3)c(-n3nncc3-c3ccc(Cl)cc3Cl)c2)c1 [Example 191, 5-(2,4-dichlorophenyl)-1-{5-fluoro-3′-(methylsulfonyl)-4-[4-(trifluoromethyl)-1H-imidazol-1-yl]biphenyl-3-yl}-1H-1,2,3-triazole] | 452 nM | 102%
Cc1nc(Cl)cn1-c1ccc(-c2cccc(S(C)(=O)=O)c2)cc1-n1nncc1-c1ccc(Cl)cc1 [Example 150, 1-[4-(4-chloro-2-methyl-1H-imidazol-1-yl)-3′-(methylsulfonyl)biphenyl-3-yl]-5-(4-chlorophenyl)-1H-1,2,3-triazole] | 1290 nM | 56%
Cc1nc(C(F)(F)F)cn1-c1ccc(-c2ccc(CO)c(S(C)(=O)=O)c2)cc1-c1nc(CCO)oc1-c1ccc(OC(F)(F)F)cc1 [Example 526] | 1770 nM | 74%
Cc1nc(C(F)(F)F)cn1-c1ccc(-c2cccc(S(C)(=O)=O)c2)cc1-c1nc(C(F)(F)F)cn1-c1ccc2c(c1)OC(F)(F)O2 [Example 640, 1-(2,2-difluorobenzo[d][1,3]dioxol-5-yl)-2-(4-(2-methyl-4-(trifluoromethyl)-1H-imidazol-1-yl)-3′-(methylsulfonyl)biphenyl-3-yl)-4-(trifluoromethyl)-1H-imidazole] | 218 nM | 61%
Cc1nc(C(F)(F)F)cn1-c1ccc(-c2cccc(S(C)(=O)=O)c2)cc1-c1nc(CCO)oc1-c1ccc(OC(F)(F)F)cc1 [Example 524, 2-(4-(4-(2-methyl-4-(trifluoromethyl)-1H-imidazol-1-yl)-3′-(methylsulfonyl)-[1,1′-biphenyl]-3-yl)-5-(4-(trifluoromethoxy)phenyl)oxazol-2-yl)ethanol] | 514 nM | 66%
Cc1nc(C2CC2)cn1-c1ccc(-c2cccc(S(C)(=O)=O)c2)cc1-n1nncc1-c1ccc(Cl)cc1 [Example 228, 5-(4-chlorophenyl)-1-(4-(4-cyclopropyl-2-methyl-1H-imidazol-1-yl)-3′-(methylsulfonyl)-[1,1′-biphenyl]-3-yl)-1H-1,2,3-triazole] | 2560 nM | 67%
Cc1nc(C(C)(F)F)cn1-c1ccc(-c2cc(F)c(CO)c(S(C)(=O)=O)c2)cc1-n1nncc1-c1ccc(OC(F)(F)F)cc1 [Example 174, {4′-[4-(1,1-difluoroethyl)-2-methyl-1H-imidazol-1-yl]-3-fluoro-5-(methylsulfonyl)-3′-(5-{4-[(trifluoromethyl)oxy]phenyl}-1H-1,2,3-triazol-1-yl)biphenyl-4-yl}methanol] | 467 nM | 88%

The next lines start with the values.

EC50 | Emax | Structure (SMILES)
49 nM | 91% | Cc1cc(-c2cc(-c3cccc(S(C)(=O)=O)c3)ccc2-n2cc(C(F)(F)F)nc2C)n(-c2ccc(OC(F)F)cc2)n1 [Example 301, 1-(4-(difluoromethoxy)phenyl)-3-methyl-5-(4-(2-methyl-4-(trifluoromethyl)-1H-imidazol-1-yl)-3′-(methylsulfonyl)biphenyl-3-yl)-1H-pyrazole]
40 nM | 80% | Cc1nc(C(F)(F)F)cn1-c1ccc(-c2ccc(CO)c(S(C)(=O)=O)c2)cc1-c1ccnn1-c1ccc2c(c1)OC(F)(F)O2 [Example 295, (3′-(1-(2,2-difluorobenzo[d][1,3]dioxol-5-yl)-1H-pyrazol-5-yl)-4′-(2-methyl-4-(trifluoromethyl)-1H-imidazol-1-yl)-3-(methylsulfonyl)biphenyl-4-yl)methanol]
25 nM | 90% | Cc1nc(-c2cc(-c3cccc(S(=O)(=O)N(C)C)c3)ccc2-n2cc(C(F)(F)F)nc2C)c(-c2ccc(OC(F)F)cc2)o1 [Example 541, 3′-(5-(4-(difluoromethoxy)phenyl)-2-methyloxazol-4-yl)-dimethyl-4′-(2-methyl-4-(trifluoromethyl)-1H-imidazol-1-yl)-[1,1′-biphenyl]-3-sulfonamide]
214 nM | 75% | COc1ncc(-c2oc(C)nc2-c2cc(-c3cc(F)c(CO)c(S(C)(=O)=O)c3)ccc2-n2cc(C(F)(F)F)nc2C)cc1F [Example 440, (3-fluoro-3′-(5-(5-fluoro-6-methoxypyridin-3-yl)-2-methyloxazol-4-yl)-4′-(2-methyl-4-(trifluoromethyl)-1H-imidazol-1-yl)-5-(methylsulfonyl)biphenyl-4-yl)methanol]
40 nM | 95% | Cc1nc(-c2cc(-c3cccc(S(C)(=O)=O)c3)ccc2-n2cc(C(F)(F)F)nc2C)c(-c2ccc3c(c2)OC(F)(F)O3)o1 [Example 493, 5-(2,2-difluorobenzo[d][1,3]dioxol-5-yl)-2-methyl-4-(4-(2-methyl-4-(trifluoromethyl)-1H-imidazol-1-yl)-3′-(methylsulfonyl)biphenyl-3-yl)oxazole]
30 nM | 81% | CCc1nc(-c2cc(-c3cc(F)c(CO)c(S(C)(=O)=O)c3)ccc2-n2cc(C(F)(F)F)nc2C)c(-c2ccc3c(c2)OC(F)(F)O3)o1 [Example 479, (3′-(5-(2,2-difluorobenzo[d][1,3]dioxol-5-yl)-2-ethyloxazol-4-yl)-3-fluoro-4′-(2-methyl-4-(trifluoromethyl)-1H-imidazol-1-yl)-5-(methylsulfonyl)biphenyl-4-yl)methanol]
74 nM | 83% | Cc1nc(C(F)(F)F)cn1-c1c(F)cc(-c2cc(F)c(CO)c(S(C)(=O)=O)c2)cc1-n1nncc1-c1ccc(Cl)cc1Cl [Example 200, {3′-[5-(2,4-dichlorophenyl)-1H-1,2,3-triazol-1-yl]-3,5′-difluoro-5-(methylsulfonyl)-4′-[2-methyl-4-(trifluoromethyl)-1H-imidazol-1-yl]biphenyl-4-yl}methanol]
36 nM | 69% | Cc1nc(-c2cc(-c3ccc(C)c(S(C)(=O)=O)c3)ccc2-n2cc(C(F)(F)F)nc2C)c(-c2ccc3c(c2)OC(F)(F)O3)o1 [Example 445, 5-(2,2-difluorobenzo[d][1,3]dioxol-5-yl)-2-methyl-4-(4′-methyl-4-(2-methyl-4-(trifluoromethyl)-1H-imidazol-1-yl)-3′-(methylsulfonyl)biphenyl-3-yl)oxazole]
34 nM | 77% | Cc1nc(C(F)(F)F)cn1-c1ccc(-c2cccc(S(C)(=O)=O)c2)cc1-c1nc(CC(C)C)oc1-c1ccc(OC(F)(F)F)cc1 [Example 562, 2-isobutyl-4-(4-(2-methyl-4-(trifluoromethyl)-1H-imidazol-1-yl)-3′-(methylsulfonyl)-[1,1′-biphenyl]-3-yl)-5-(4-(trifluoromethoxy)phenyl)oxazole]
217 nM | 78% | Cc1nc(C(F)(F)F)cn1-c1ccc(-c2cc(F)c(CO)c(S(C)(=O)=O)c2)cc1-n1nncc1-c1ccc(Cl)cc1 [Example 58, {3′-[5-(4-chlorophenyl)-1H-1,2,3-triazol-1-yl]-3-fluoro-5-(methylsulfonyl)-4′-[2-methyl-4-(trifluoromethyl)-1H-imidazol-1-yl]biphenyl-4-yl}methanol]
